Activity calls are given as the source filed them.
What was measured:
Type in all cases: functional, organism-based
[1] = tested on: Staphylococcus aureus; test: Antibacterial activity against Staphylococcus aureus by agar diffusion method
[2] = tested on: Escherichia coli; test: Antibacterial activity against Escherichia coli by agar diffusion method
[3] = tested on: Candida albicans; test: Antifungal activity against Candida albicans by agar diffusion method
[4] = tested on: Streptomyces viridochromogenes; test: Antibacterial activity against Streptomyces viridochromogenes by agar diffusion method
[5] = tested on: Rhizomucor miehei; test: Antifungal activity against Mucor miehei by agar diffusion method
[6] = tested on: Bacillus subtilis; test: Antibacterial activity against Bacillus subtilis by agar diffusion method

Measured: Activity

c1ccc2c(C(c3c[nH]c4ccccc34)c3c[nH]c4ccccc34)c[nH]c2c1
inactive: all assays above

CC(=O)C(C)(c1c[nH]c2ccccc12)c1c[nH]c2ccccc12
inactive: all assays above

CC(CC(c1c[nH]c2ccccc12)c1c[nH]c2ccccc12)c1c[nH]c2ccccc12 (centres undefined)
inactive: all assays above

c1ccc2c(Cc3c[nH]c4ccccc34)c[nH]c2c1
inactive: all assays above
